Measured values from paper PMC6576746, “Rational discovery of dual-indication multi-target PDE/Kinase inhibitor for precision anti-cancer therapy using structural systems pharmacology” (PLoS Computational Biology, 2019).

Assays:
Experiment in all cases: cells
Design in all cases: species or system panel of human cancer cell lines; Eurofins OncoPanel proliferation; nuclei count by high-content fluorescence imaging, 10-point dose response
[1] = system: A172; conditions: Homo sapiens, A 172, 72 h, cell count, 3 days
In short: (§1)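 Cells in RPMI 1640/10% FBS or special medium received compound the day after seeding, with a time-zero plate; 3-day incubation at 37°C, 5% CO2. Nuclei imaged by fluorescence microscopy; 10 half-log doses from 100 μM, 0.1% DMSO. EC50, IC50, GI50 and activity area (0–10) from curve fits.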

[2] = system: BM-1604; conditions: BM-1604, 72 h, cell count, 3 days
In short: as §1

[3] = system: CAL-62; conditions: Homo sapiens, CAL-62, 72 h, cell count, 3 days
In short: as §1

[4] = system: EB-3; conditions: Homo sapiens, EB-3, 72 h, cell count, 3 days
In short: as §1

[5] = system: G-402; conditions: Homo sapiens, G-402, 72 h, cell count, 3 days
In short: as §1

[6] = system: HT-3; conditions: Homo sapiens, HT-3, 72 h, cell count, 3 days
In short: as §1

[7] = system: K562; conditions: Homo sapiens, K562, 72 h, cell count, 3 days
In short: as §1

[8] = system: MC116; conditions: Homo sapiens, MC116, 72 h, cell count, 3 days
In short: as §1

[9] = system: Mia PaCa-2; conditions: Homo sapiens, MIA PaCa-2, 72 h, cell count, 3 days
In short: as §1

[10] = system: RD; conditions: Homo sapiens, RD, 72 h, cell count, 3 days
In short: as §1

[11] = system: SK-LMS-1; conditions: Homo sapiens, SK-LMS-1, 72 h, cell count, 3 days
In short: as §1

[12] = system: ST486; conditions: Homo sapiens, ST486, 72 h, cell count, 3 days
In short: as §1

[13] = system: SW403; conditions: Homo sapiens, SW-403, 72 h, cell count, 3 days
In short: as §1

[14] = system: TUR; conditions: 72 h, cell count, 3 days
In short: as §1

[15] = 50% of maximum possible response

C[C@@H]1CC(=O)NN=C1c1ccc(NN=C(C#N)C#N)cc1 [levosimendan]
IC50 [1, 15]: 55.8 µM
GI50 ([1]; corrected for time zero): 44.8 µM
EC50 ([1]; curve inflection point): 55.8 µM
IC50 [2, 15]: 12.6 µM
GI50 ([2]; corrected for time zero): 7.44 µM
EC50 ([2]; curve inflection point): 12.6 µM
IC50 [3, 15]: 12.3 µM
GI50 ([3]; corrected for time zero): 11.4 µM
EC50 ([3]; curve inflection point): 12.1 µM
IC50 [4, 15]: 30 µM
GI50 ([4]; corrected for time zero): 23.6 µM
EC50 ([4]; curve inflection point): 30 µM
IC50 [5, 15]: 10.1 µM
GI50 ([5]; corrected for time zero): 4.83 µM
EC50 ([5]; curve inflection point): 6.76 µM
IC50 [6, 15]: 91.3 µM
GI50 ([6]; corrected for time zero): 48.5 µM
EC50 ([6]; curve inflection point): 91.3 µM
IC50 [7, 15]: 44.4 µM
GI50 ([7]; corrected for time zero): 38.5 µM
EC50 ([7]; curve inflection point): 44.4 µM
IC50 [8, 15]: 14.9 µM
GI50 ([8]; corrected for time zero): 13.8 µM
EC50 ([8]; curve inflection point): 14.7 µM
IC50 [9, 15]: 11 µM
GI50 ([9]; corrected for time zero): 9.38 µM
EC50 ([9]; curve inflection point): 9.92 µM
IC50 [10, 15]: 20.6 µM
GI50 ([10]; corrected for time zero): 15.7 µM
EC50 ([10]; curve inflection point): 20.6 µM
IC50 [11, 15]: 27.1 µM
GI50 ([11]; corrected for time zero): 21.5 µM
EC50 ([11]; curve inflection point): 27.1 µM
IC50 [12, 15]: 8.16 µM
GI50 ([12]; corrected for time zero): 6.04 µM
EC50 ([12]; curve inflection point): 8.16 µM
IC50 [13, 15]: 33.2 µM
GI50 ([13]; corrected for time zero): 14.4 µM
EC50 ([13]; curve inflection point): 28.7 µM
IC50 [14, 15]: 6.72 µM
GI50 ([14]; corrected for time zero): 5.98 µM
EC50 ([14]; curve inflection point): 6.49 µM
